Measured values reported in patent US10168342B2, “Lipid probes and uses thereof” (THE SCRIPPS RESEARCH INSTITUTE, priority 2015, dated 2019).

How the values were obtained:
[1] = target: T1, lipid-binding proteins in A549 cells (Homo sapiens, UniProt Q9NS69); assay: SILAC MS mapping of UV-dependent lipid probe targets in A549 cells; format: cell-based; settings: AEA-DA probe vs NoUV
T1 construct: endogenous in cells; host or cells: A549 (PMA-stimulated for the PTGS2 experiments)

[2] = target: T2, lipid-binding proteins in A549 cells (Homo sapiens, UniProt Q86XL3); assay: as above; format: cell-based; settings: AEA-DA probe vs NoUV
T2 construct: endogenous in cells; host or cells: A549 (PMA-stimulated for the PTGS2 experiments)
T2 sequence (Q86XL3 whole entry): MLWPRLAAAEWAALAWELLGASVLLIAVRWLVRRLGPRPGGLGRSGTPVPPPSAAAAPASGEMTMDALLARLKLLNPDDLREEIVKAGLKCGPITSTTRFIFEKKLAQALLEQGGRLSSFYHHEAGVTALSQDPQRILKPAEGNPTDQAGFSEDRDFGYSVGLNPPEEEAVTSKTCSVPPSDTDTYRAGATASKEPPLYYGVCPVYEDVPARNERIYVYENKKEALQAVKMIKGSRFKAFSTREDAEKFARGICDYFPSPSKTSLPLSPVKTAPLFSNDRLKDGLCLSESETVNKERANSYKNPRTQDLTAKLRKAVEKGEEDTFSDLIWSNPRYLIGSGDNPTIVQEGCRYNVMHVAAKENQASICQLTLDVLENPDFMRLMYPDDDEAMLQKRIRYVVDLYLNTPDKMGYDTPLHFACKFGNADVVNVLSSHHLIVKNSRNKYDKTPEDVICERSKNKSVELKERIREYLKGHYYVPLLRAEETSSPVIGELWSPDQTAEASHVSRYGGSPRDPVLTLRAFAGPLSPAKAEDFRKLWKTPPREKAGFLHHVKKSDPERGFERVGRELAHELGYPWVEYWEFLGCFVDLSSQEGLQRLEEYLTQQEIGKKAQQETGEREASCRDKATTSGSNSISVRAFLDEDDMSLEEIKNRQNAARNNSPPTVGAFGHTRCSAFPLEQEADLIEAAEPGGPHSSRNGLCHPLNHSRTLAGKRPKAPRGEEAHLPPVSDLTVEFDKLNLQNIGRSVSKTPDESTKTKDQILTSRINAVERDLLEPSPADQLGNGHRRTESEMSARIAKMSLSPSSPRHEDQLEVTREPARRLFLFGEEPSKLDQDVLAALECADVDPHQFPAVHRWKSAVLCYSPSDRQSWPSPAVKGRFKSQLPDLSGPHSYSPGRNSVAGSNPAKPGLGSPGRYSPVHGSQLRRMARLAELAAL

[3] = target: T3, lipid-binding proteins in A549 cells (Homo sapiens, UniProt O95470); assay: as above; format: cell-based; settings: AEA-DA probe vs NoUV
T3 construct: endogenous in cells; host or cells: A549 (PMA-stimulated for the PTGS2 experiments)

[4] = target: T4, lipid-binding proteins in A549 cells (Homo sapiens, UniProt P45880); assay: as above; format: cell-based; settings: AEA-DA probe vs NoUV
T4 construct: endogenous in cells; host or cells: A549 (PMA-stimulated for the PTGS2 experiments)
T4 sequence (P45880 whole entry): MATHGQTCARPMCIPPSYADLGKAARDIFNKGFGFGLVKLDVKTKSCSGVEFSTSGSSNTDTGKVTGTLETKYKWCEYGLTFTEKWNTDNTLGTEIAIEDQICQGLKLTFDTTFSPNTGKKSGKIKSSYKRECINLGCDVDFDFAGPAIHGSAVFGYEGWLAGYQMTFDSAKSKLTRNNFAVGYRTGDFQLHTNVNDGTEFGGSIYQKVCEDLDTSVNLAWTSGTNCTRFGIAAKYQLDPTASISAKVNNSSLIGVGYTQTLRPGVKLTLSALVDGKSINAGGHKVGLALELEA

[5] = target: T5, lipid-binding proteins in A549 cells (Homo sapiens, UniProt Q9HAW7); assay: as above; format: cell-based; settings: AEA-DA probe vs NoUV
T5 construct: endogenous in cells; host or cells: A549 (PMA-stimulated for the PTGS2 experiments)
T5 sequence (Q9HAW7 26-530): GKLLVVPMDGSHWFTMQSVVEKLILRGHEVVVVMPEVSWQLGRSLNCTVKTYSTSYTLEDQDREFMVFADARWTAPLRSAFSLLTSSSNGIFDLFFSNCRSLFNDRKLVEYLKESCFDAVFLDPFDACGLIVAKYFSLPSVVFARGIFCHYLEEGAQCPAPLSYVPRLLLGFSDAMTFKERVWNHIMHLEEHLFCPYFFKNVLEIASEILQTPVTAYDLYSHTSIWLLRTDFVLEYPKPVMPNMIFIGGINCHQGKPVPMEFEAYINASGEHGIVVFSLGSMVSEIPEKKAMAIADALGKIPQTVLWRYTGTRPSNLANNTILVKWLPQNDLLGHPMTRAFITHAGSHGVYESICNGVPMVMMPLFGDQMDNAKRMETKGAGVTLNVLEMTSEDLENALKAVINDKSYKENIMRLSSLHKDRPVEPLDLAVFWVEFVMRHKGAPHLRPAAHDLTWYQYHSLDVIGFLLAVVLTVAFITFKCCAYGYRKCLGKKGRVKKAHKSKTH

[6] = target: T6, lipid-binding proteins in A549 cells (Homo sapiens, UniProt P21796); assay: as above; format: cell-based; settings: AEA-DA probe vs NoUV
T6 construct: endogenous in cells; host or cells: A549 (PMA-stimulated for the PTGS2 experiments)
T6 sequence (P21796 whole entry): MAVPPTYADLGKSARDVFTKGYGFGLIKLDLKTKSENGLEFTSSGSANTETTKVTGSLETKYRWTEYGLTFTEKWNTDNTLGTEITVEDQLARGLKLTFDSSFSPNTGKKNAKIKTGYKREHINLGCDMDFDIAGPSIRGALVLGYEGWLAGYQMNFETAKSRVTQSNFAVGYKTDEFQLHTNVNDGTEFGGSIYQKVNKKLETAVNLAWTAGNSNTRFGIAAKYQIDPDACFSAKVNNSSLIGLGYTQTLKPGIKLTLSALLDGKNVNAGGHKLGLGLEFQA

[7] = target: T7, lipid-binding proteins in A549 cells (Homo sapiens, UniProt P30519); assay: as above; format: cell-based; settings: AEA-DA probe vs NoUV
T7 construct: endogenous in cells; host or cells: A549 (PMA-stimulated for the PTGS2 experiments)
T7 sequence (P30519 whole entry): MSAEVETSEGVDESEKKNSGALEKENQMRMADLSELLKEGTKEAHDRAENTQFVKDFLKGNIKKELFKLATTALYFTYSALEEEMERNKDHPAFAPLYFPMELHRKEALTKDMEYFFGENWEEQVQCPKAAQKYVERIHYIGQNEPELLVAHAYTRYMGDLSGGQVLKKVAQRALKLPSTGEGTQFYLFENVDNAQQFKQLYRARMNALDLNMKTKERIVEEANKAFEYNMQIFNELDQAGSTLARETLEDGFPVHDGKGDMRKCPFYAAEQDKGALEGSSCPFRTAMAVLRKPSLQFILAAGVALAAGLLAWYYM

[8] = target: T8, lipid-binding proteins in A549 cells (Homo sapiens, UniProt O15173); assay: as above; format: cell-based; settings: AEA-DA probe vs NoUV
T8 construct: endogenous in cells; host or cells: A549 (PMA-stimulated for the PTGS2 experiments)
T8 sequence (O15173 whole entry): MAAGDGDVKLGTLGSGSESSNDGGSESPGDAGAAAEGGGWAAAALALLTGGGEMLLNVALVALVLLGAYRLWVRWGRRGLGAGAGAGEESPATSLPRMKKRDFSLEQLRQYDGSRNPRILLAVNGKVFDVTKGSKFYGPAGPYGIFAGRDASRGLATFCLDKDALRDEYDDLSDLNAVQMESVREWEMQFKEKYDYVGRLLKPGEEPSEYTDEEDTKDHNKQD

[9] = target: T9, lipid-binding proteins in A549 cells (Homo sapiens, UniProt Q53GQ0); assay: as above; format: cell-based; settings: AEA-DA probe vs NoUV
T9 construct: endogenous in cells; host or cells: A549 (PMA-stimulated for the PTGS2 experiments)
T9 sequence (Q53GQ0 whole entry): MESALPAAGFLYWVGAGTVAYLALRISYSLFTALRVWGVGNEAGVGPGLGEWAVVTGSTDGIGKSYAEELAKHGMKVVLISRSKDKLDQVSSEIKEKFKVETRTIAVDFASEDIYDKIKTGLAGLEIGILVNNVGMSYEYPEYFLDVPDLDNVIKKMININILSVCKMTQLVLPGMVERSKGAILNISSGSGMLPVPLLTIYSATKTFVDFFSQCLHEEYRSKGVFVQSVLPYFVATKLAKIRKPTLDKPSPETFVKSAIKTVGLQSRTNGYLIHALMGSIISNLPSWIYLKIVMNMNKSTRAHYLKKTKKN

[10] = target: T10, lipid-binding proteins in A549 cells (Homo sapiens, UniProt P67812); assay: as above; format: cell-based; settings: AEA-DA probe vs NoUV
T10 construct: endogenous in cells; host or cells: A549 (PMA-stimulated for the PTGS2 experiments)
T10 sequence (P67812 whole entry): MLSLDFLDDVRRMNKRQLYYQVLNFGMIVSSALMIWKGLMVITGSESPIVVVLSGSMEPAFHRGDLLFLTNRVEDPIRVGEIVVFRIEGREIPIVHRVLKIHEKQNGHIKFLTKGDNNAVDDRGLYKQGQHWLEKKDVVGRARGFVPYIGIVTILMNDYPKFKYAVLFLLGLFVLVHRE

[11] = target: T11, lipid-binding proteins in A549 cells (Homo sapiens, UniProt Q9H4I3); assay: as above; format: cell-based; settings: AEA-DA probe vs NoUV
T11 construct: endogenous in cells; host or cells: A549 (PMA-stimulated for the PTGS2 experiments)
T11 sequence (Q9H4I3 whole entry): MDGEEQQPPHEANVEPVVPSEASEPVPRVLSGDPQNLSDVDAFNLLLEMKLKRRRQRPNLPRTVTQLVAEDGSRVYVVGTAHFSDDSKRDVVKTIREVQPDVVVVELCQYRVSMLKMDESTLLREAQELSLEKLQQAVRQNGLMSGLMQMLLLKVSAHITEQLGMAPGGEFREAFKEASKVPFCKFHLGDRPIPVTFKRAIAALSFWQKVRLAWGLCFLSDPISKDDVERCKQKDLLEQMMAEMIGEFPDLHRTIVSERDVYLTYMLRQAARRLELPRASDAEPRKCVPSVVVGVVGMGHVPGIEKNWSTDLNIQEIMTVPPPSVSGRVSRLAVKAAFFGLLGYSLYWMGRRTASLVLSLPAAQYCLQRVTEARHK

[12] = target: T12, lipid-binding proteins in A549 cells (Homo sapiens, UniProt P07602); assay: as above; format: cell-based; settings: AEA-DA probe vs NoUV
T12 construct: endogenous in cells; host or cells: A549 (PMA-stimulated for the PTGS2 experiments)
T12 sequence (P07602 60-524): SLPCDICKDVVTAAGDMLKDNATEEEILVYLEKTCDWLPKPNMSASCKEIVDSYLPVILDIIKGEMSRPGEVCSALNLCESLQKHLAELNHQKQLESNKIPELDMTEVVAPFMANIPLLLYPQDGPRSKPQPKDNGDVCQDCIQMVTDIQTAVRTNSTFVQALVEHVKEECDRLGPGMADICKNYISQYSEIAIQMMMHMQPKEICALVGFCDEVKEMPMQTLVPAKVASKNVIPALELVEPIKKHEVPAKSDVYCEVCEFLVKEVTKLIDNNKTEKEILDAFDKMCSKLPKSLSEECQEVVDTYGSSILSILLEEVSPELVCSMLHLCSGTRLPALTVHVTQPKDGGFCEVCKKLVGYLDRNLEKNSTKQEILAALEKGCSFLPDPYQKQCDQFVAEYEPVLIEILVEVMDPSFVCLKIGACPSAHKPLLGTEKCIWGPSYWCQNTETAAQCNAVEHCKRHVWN

[13] = target: T13, lipid-binding proteins in A549 cells (Homo sapiens, UniProt Q14534); assay: as above; format: cell-based; settings: AEA-DA probe vs NoUV
T13 construct: endogenous in cells; host or cells: A549 (PMA-stimulated for the PTGS2 experiments)
T13 sequence (Q14534 whole entry): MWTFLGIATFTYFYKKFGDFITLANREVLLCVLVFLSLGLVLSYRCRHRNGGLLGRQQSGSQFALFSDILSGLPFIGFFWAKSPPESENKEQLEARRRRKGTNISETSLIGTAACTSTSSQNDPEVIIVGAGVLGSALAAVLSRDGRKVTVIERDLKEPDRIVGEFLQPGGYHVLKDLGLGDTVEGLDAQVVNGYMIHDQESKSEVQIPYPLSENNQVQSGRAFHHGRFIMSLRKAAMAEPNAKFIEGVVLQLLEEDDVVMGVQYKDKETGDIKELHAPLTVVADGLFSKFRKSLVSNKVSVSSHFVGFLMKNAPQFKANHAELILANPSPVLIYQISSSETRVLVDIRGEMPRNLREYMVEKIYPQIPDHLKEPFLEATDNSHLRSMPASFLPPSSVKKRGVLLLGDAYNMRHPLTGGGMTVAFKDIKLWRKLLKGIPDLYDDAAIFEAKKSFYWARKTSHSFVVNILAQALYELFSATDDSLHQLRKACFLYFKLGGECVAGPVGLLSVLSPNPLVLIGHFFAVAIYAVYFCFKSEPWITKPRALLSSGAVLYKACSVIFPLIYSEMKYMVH

human NUCB1 = target: T14, human NUCB1 (Homo sapiens, UniProt Q02818); assay: FluoPol assay / high throughput screen with Fl-AEA and recombinant NUCB1; format: binding; settings: competitor lipids, recombinant NUCB1
T14 construct: made in house; host or cells: Escherichia coli BL21(DE3)
T14 sequence (Q02818 27-461): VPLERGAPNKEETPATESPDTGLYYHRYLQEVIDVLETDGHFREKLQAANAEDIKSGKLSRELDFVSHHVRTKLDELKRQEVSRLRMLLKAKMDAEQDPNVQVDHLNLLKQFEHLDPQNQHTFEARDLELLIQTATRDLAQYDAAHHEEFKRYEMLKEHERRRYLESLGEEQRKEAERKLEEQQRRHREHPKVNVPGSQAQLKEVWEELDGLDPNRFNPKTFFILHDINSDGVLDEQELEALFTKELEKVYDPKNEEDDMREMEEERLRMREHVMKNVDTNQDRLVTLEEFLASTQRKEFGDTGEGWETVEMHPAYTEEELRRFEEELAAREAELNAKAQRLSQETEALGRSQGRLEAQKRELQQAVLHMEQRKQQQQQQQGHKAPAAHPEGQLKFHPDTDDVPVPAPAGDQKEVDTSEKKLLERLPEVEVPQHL
Procedure: FluoPol conditions were optimized by screening various concentrations of Fl-AEA, hNUCB1, CaCl2 and Pluronic F-127 against positive and negative controls. Arachidonic acid (20 μM final) was used as a positive control, and DMSO as a negative. Additionally, protein-free controls were used to normalize for background signal. […] The Z′-factor for these conditions was determined to be 0.54, indicating a high signal to noise assay.
A 10 μL solution of hNUCB1 (1 μM), Fl-AEA (0.5 μM), CaCl2 (20 μM), and Pluronic F-127 (0.01%) was added to a Greiner 384-well plate. Additionally, in some wells protein was omitted to serve as a blank control for background signal. To the protein containing wells 16,000 compounds (50 nL in DMSO, 2 mM) from the Maybridge Hitfinder library were added by a pin-tool robot. Additionally, on each plate to some wells arachidonic acid (20 μM final) or DMSO were added as positive and negative controls to allow normalization between plates. The plates were allowed to incubate for 5 minutes at room temperature, then fluorescence polarization was measured by measuring fluorescence intensity through polarized 595 nm filters. Hits were selected based on maximal probe competition.

T1 sequence (Q9NS69 whole entry): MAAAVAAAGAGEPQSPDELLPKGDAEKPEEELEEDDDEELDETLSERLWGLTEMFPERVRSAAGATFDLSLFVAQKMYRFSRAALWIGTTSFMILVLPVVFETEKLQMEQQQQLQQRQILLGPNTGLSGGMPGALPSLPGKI

SMILES	SILAC ratio, TOMM22 (Q9CPQ3) [1]	SILAC ratio, ANKLE2 (Q86XL3) [2]	SILAC ratio, SGPL1 (O95470) [3]	SILAC ratio, VDAC2 (P45880) [4]	SILAC ratio, UGT1A7 (Q9HAW7) [5]	SILAC ratio, VDAC1 (P21796) [6]	SILAC ratio, HMOX2 (P30519) [7]	SILAC ratio, PGRMC2 (Q80UU9) [8]	SILAC ratio, HSD17B12 (Q53GQ0) [9]	SILAC ratio, SEC11A (P67812) [10]	SILAC ratio, TRABD (Q99JY4) [11]	SILAC ratio, PSAP (P07602) [12]	SILAC ratio, SQLE (Q14534) [13]	suppression of the NUCB1-FluoPol signal (blockade of Fl-AEA binding) (human NUCB1)
C#CCCCC1(CC/C=C\C/C=C\C/C=C\CCCC(=O)NCCO)N=N1 [AEA-DA, (5Z,8Z,11Z)-N-(2-hydroxyethyl)-14-(3-(pent-4-yn-1-yl)-3H-diazirin-3-yl)tetradeca-5,8,11-trienamide]	20.0	20.0	20.0	20.0	20.0	20.0	20.0	20.0	20.0	14.0	20.0	20.0	20.0	–
CCCCC/C=C\C/C=C\C/C=C\C/C=C\CCCC(=O)NCCO [AEA, anandamide, reference compound]	–	–	–	–	–	–	–	–	–	–	–	–	–	Concentration-dependent suppression
